# *1 amine or outer side, *2 acyl side, *3 side chain or, on linkers, in order; H or OH if unused. Where a SMILES comes first, the peptide text is derived from it. Bridges are numbered along the chain shown (N, C = ends). The star is where a group is joined. pNA = O=[N+]([O-])c1ccc(N*)cc1; Suc = O=C(CCC(=O)[*:2])[*:1]
# Experiments:
# chymotrypsin [1] = molecular target: T1, chymotrypsin (Bos taurus, UniProt P00766); assay: Determination of the Michaelis constant Km of chymotrypsin hydrolyzing AAPFpNA; type: biochemical; settings: R^2=0.9988, pH 7.8, 37° C.
# Procedure: (1) Added a total 198 μL of reaction buffer (20 mM CaCl2, 50 mM Tris-HCl (pH 7.8)) into the 96 well plate, followed by preheating at 37° C. for 15 min. Then added 2 μL of different concentrations of substrates (p-Nitroanilide, pNA, 0.5% in DMSO), and mixed by centrifugation at 500 rpm for 1 min. Finally, the plate was incubated at 37° C. for 20 min, and the absorbance value at 405 nm was measured. In the 200 μL of reaction system, the final concentrations of pNA were 0, 0.025, 0.05, 0.075, 0.1, 0.125, 0.15, 0.25, and 0.3 mM, respectively. Make three repetitions for each concentration and plot the OD 405 nm value with pNA concentration to obtain the standard curve. (2) Added a total 190 μL of reaction buffer (20 mM CaCl2, 50 mM Tris-HCl (pH 7.8)) and 8 μL of 0.75 μM chymotrypsin into the 96 well plate, followed by preheating at 37° C. for 5 min. Then added 2 μL of different concentrations of substrates (AAPFpNA, dissolved in DMSO), and mixed by centrifugation at 500 rpm for 1 min. Finally, the plate was incubated at 37° C. for 20 min, and the absorbance value at 405 nm was measured. In the 200 μL of reaction system, the final concentrations of AAPFpNA were 0, 0.125, 0.25, 0.285, 0.33, 0.4, and 0.5 mM, respectively. […]
# Using a certain concentration of chymotrypsin to catalyze different concentrations of AAPFpNA to produce pNA, and the absorbance value of OD 405 nm was measured.
# chymotrypsin [2] = molecular target: T1, chymotrypsin; assay: Determination of enzyme inhibitory activity against chymotrypsin (substrate AAPFpNA, OD 405 nm); type: biochemical; settings: for IC50: chymotrypsin 30 nM, AAPFpNA 0.5 mM, pH 7.8, 37° C.; for remaining activity at 0.001 µM: peptide 0.001 μM; for remaining activity at 0.1 µM: peptide 0.1 μM; for remaining activity at 0.5 µM: peptide 0.5 μM; for remaining activity at 1 µM: peptide 1 μM; for remaining activity at 10 µM: peptide 10 μM; for remaining activity at 100 µM: peptide 100 μM; for remaining activity at 0.01 µM: peptide 0.01 μM; for remaining activity at 0.2 µM: peptide 0.2 μM
# Procedure: The substrates N-succinyl-Ala-Ala-Pro-Phe-p-nitroaniline (AAPFpNA) is used in competitive binding reaction to determine the inhibitory activities against α -chymotrypsin. Experiments for a-chymotrypsin was measured in 20 mM CaCl2, 50 mM Tris-HCl buffer (pH 7.8). The concentration of the peptide was measured using optical density (OD) at 280 nm. The Michaelis constant (Km) of the enzyme hydrolysis substrate is calculated from the initial rate of substrate hydrolysis at 405 nm. The absorbance value of the substrate was measured at 405 nm after complete hydrolysis. All data were processed using nonlinear regression.
# (1) Added a total 190 μL of reaction buffer (20 mM CaCl2, 50 mM Tris-HCl (pH 7.8)), different concentrations of anti-chymorypsin peptides (CHs) into the pre-cold 96 well plate, followed by preheating at 37° C. for 5 min and centrifugated at 500 rpm for 1 min and allowed to stand for 4 minutes. Then added 8 μL of 750 nM chymotrypsin and incubated at 37° C. for 10 min, and centrifugated at 500 rpm for 1 min and allowed to stand for 9 minutes. Finally, added 2 μL of 50 mM AAPFpNA, and mixed by centrifugation at 500 rpm for 1 min. The plate was incubated at 37° C. for 90 min, and the absorbance value at 405 nm was measured. Three repetitions were made, and only reaction buffer and substrate were added in the blank control as the minimum absorption value (Min OD 405 nm); Only reaction buffer, enzyme and substrate were added in the negative control as the maximum absorption value (Max OD 405 nm).
# (2) In the 200 μL of reaction system, the final concentrations of chymotrypsin and AAPFpNA were 30 nM and 0.5 mM, respectively.
# Plotted the residual activity of enzyme with […] to obtain the half inhibitory concentration (IC50) of anti-chymorypsin peptides (CHs). Then, substituted it into the formula […]/(1+S/Km) (S, IC50, and Km were substrate concentration, half inhibitory concentration, and Michaelis constant, respectively) to obtain the inhibition constant Ki of anti-chymorypsin peptides (CHs).
# Normal ICR mice = assay: In vivo hypoglycemic activity, subcutaneous administration; settings: for Glucose (mean ± sd): subcutaneous, 0.9 mg/kg
# Procedure: Tail tip blood samples were collected at 40 min and 90 min after administration, and blood glucose levels were measured using glucose oxidase method to calculate blood glucose values at each blood sampling time point.
# [3] = read-out: Residual activity of chymotrypsin
Ki (chymotrypsin [2]) [nM],IC50 (chymotrypsin [2]) [nM],remaining activity at 0.001 µM (chymotrypsin [2]; [3]) [%],remaining activity at 0.1 µM (chymotrypsin [2]; [3]) [%],remaining activity at 0.5 µM (chymotrypsin [2]; [3]) [%],remaining activity at 1 µM (chymotrypsin [2]; [3]) [%],remaining activity at 10 µM (chymotrypsin [2]; [3]) [%],remaining activity at 100 µM (chymotrypsin [2]; [3]) [%],remaining activity at 0.01 µM (chymotrypsin [2]; [3]) [%],remaining activity at 0.2 µM (chymotrypsin [2]; [3]) [%],Compound,other results
,,,,,,,,,,"C[C@H](NC(=O)CCC(=O)O)C(=O)N[C@@H](C)C(=O)N1CCC[C@H]1C(=O)N[C@@H](Cc1ccccc1)C(=O)Nc1ccc([N+](=O)[O-])cc1 [AAPFpNA, N-succinyl-Ala-Ala-Pro-Phe-p-nitroaniline] (Suc-AAPF-pNA)",Km (chymotrypsin [1]): 380 µM
210,480,99.8 ± 2,97.8 ± 4.4,48.2 ± 3.6,8.9 ± 1.4,4.1 ± 2.3,0.1 ± 0.1,,,CC[C@H](C)[C@@H]1NC(=O)[C@@H]2CCCN2C(=O)[C@@H]2CCCN2C(=O)[C@H]([C@@H](C)CC)NC(=O)[C@H](CO)NC(=O)[C@H](Cc2ccc(O)cc2)NC(=O)[C@H]([C@@H](C)O)NC(=O)[C@H](C)NC(=O)[C@H](CCCNC(=N)N)NC(=O)CNC(=O)[C@@H](N)CSSC[C@@H](C(=O)N[C@@H](Cc2ccccc2)C(=O)N2CCC[C@H]2C(=O)N[C@@H](CC(=O)O)C(=O)O)NC1=O [CH65] (H-CGRATYSIPPICFPD-OH; disulfide 1-12; C-terminus assumed),"remaining activity at 0.25 µM (chymotrypsin [2]; peptide 0.25 μM, read-out: Residual activity of chymotrypsin): 89.5 ± 2.9%; remaining activity at 0.75 µM (chymotrypsin [2]; peptide 0.75 μM, read-out: Residual activity of chymotrypsin): 11.7 ± 1.4%; remaining activity at 1000 µM (chymotrypsin [2]; peptide 1000 μM, read-out: Residual activity of chymotrypsin): 0.2%"
280,650,,,,,,,,,CC[C@H](C)[C@@H]1NC(=O)[C@@H]2CCCN2C(=O)[C@@H]2CCCN2C(=O)[C@H]([C@@H](C)CC)NC(=O)[C@H](CO)NC(=O)[C@H](Cc2ccc(O)cc2)NC(=O)[C@H]([C@@H](C)O)NC(=O)[C@H](C)NC(=O)[C@H](CCCNC(=N)N)NC(=O)CNC(=O)[C@@H](N)CSSC[C@@H](C(=O)N[C@@H](Cc2ccccc2)C(=O)N2CCC[C@H]2C(=O)O)NC1=O [CH66] (H-CGRATYSIPPICFP-OH; disulfide 1-12; C-terminus assumed),
860,2000,,,,,,,,,CC[C@H](C)[C@@H]1NC(=O)[C@@H]2CCCN2C(=O)[C@@H]2CCCN2C(=O)[C@H]([C@@H](C)CC)NC(=O)[C@H](CO)NC(=O)[C@H](Cc2ccc(O)cc2)NC(=O)[C@H]([C@@H](C)O)NC(=O)[C@H](C)NC(=O)[C@H](CCCNC(=N)N)NC(=O)CNC(=O)[C@@H](N)CSSC[C@@H](C(=O)N[C@@H](Cc2ccccc2)C(=O)O)NC1=O [CH67] (H-CGRATYSIPPICF-OH; disulfide 1-12; C-terminus assumed),
130,300,101.7 ± 0.3,100 ± 2.5,20.1 ± 6.1,12.1 ± 1.1,1.3 ± 0.6,0,101 ± 0.2,78 ± 4,CC[C@H](C)[C@@H]1NC(=O)[C@@H]2CCCN2C(=O)[C@@H]2CCCN2C(=O)[C@H]([C@@H](C)CC)NC(=O)[C@H](CO)NC(=O)[C@H](Cc2ccc(O)cc2)NC(=O)[C@H]([C@@H](C)O)NC(=O)[C@H](C)NC(=O)[C@H](CCCNC(=N)N)NC(=O)[C@H](CCCCN)NC(=O)[C@@H](N)CSSC[C@@H](C(=O)N[C@@H](Cc2ccccc2)C(=O)O)NC1=O [CH69] (H-CKRATYSIPPICF-OH; disulfide 1-12; C-terminus assumed),"remaining activity at 0.3 µM (chymotrypsin [2]; peptide 0.3 μM, read-out: Residual activity of chymotrypsin): 51.5 ± 5.8%"
110,250,100 ± 7.6,105.8 ± 0.9,26 ± 2.5,7.7 ± 0.2,0.7 ± 0.3,-0.1 ± 0.1,106 ± 1.8,55 ± 7.2,CC[C@H](C)[C@@H]1NC(=O)[C@@H]2CCCN2C(=O)[C@@H]2CCCN2C(=O)[C@H]([C@@H](C)CC)NC(=O)[C@H](CO)NC(=O)[C@H](Cc2ccc(O)cc2)NC(=O)[C@H]([C@@H](C)O)NC(=O)[C@H](C)NC(=O)[C@H](CCCNC(=N)N)NC(=O)[C@H](CCC(=O)O)NC(=O)[C@@H](N)CSSC[C@@H](C(=O)N[C@@H](Cc2ccccc2)C(=O)O)NC1=O [CH70] (H-CERATYSIPPICF-OH; disulfide 1-12; C-terminus assumed),"remaining activity at 0.15 µM (chymotrypsin [2]; peptide 0.15 μM, read-out: Residual activity of chymotrypsin): 96.5 ± 8.5%"
180,410,101.4 ± 0.6,100.3 ± 0.5,,20.7 ± 1.3,0.8 ± 0.2,0.1 ± 0.1,100.6 ± 1,81.7 ± 3.3,CC[C@H](C)[C@@H]1NC(=O)[C@@H]2CCCN2C(=O)[C@@H]2CCCN2C(=O)[C@H]([C@@H](C)CC)NC(=O)[C@H](CO)NC(=O)[C@H](Cc2ccccc2)NC(=O)[C@H]([C@@H](C)O)NC(=O)[C@H](C)NC(=O)[C@H](CCCNC(=N)N)NC(=O)CNC(=O)[C@@H](N)CSSC[C@@H](C(=O)N[C@@H](Cc2ccccc2)C(=O)O)NC1=O [CH71] (H-CGRATFSIPPICF-OH; disulfide 1-12; C-terminus assumed),"remaining activity at 0.4 µM (chymotrypsin [2]; peptide 0.4 μM, read-out: Residual activity of chymotrypsin): 49.9 ± 6.6%; remaining activity at 0.8 µM (chymotrypsin [2]; peptide 0.8 μM, read-out: Residual activity of chymotrypsin): 23.6 ± 1.5%"
,,,,,,,,,,lispro: insulin analogue lispro synthesized in the present invention,"hypoglycemic activity (in words) (Normal ICR mice; subcutaneous administration, compared with a positive control): good hypoglycemic activity; Glucose (mean ± sd) (Normal ICR mice; 0 min): 96.7 ± 24.8 mg/dL; Glucose (mean ± sd) (Normal ICR mice; 40 min): 70.3 ± 6.2 mg/dL; Glucose (mean ± sd) (Normal ICR mice; 90 min): 72.9 ± 15.6 mg/dL"

# From patent US20260242438A1 (INSTITUTE OF MATERIA MEDICA, CHINESE ACADEMY OF MEDICAL …, priority 2022, published 2026)
